Test results taken from patent US9688689B2, “Compounds and compositions for inducing chondrogenesis” (Novartis AG, priority 2014, dated 2017).

Test system: Primary articular chondrocytes from normal bovine knees
Assay: NO Release Assay in Bovine Chondrocytes (inhibition of cytokine induced NO release, Greiss reagent)
Assay type: cell-based
Settings: Bos taurus, Chondrocyte; 20 ng/ml TNFα and 10 ng/ml human oncostatin M, 48 hours; read-out: NO Inh. IC50
Experimental: The compounds of the present invention were evaluated in two functional assays to assess their chondrogenesis activities (Type II Collagen Expression) and chondrocyte protective activities (NO release assay).
The assay was described in Johnson, K., et al., (2012) Science 336, 717-721. Chondrocytes release NO during OA pathogenesis. This assay measures the inhibition of nitric oxide release by the treated compound (an indicator of chondro-protection) Primary articular chondrocytes from normal bovine knees (Animal Technologies, Tyler, Tex.) were isolated after dissection and collagenase digestion (Worthington Biochemical) of the tibial plateau and femoral condyle articular cartilage. The cells were initially plated at 80-90% confluency after isolation. Primary chondrocytes were cultured in high-glucose Dulbecco's modified Eagle's medium (DMEM) supplemented with 10% fetal bovine serum (FBS), 1% L-glutamine, 100 units/ml of penicillin, and 50 μg/ml of streptomycin (Life Technologies, Carlsbad, Calif.) and maintained at 37° C. in the presence of 5% CO2 for 7 days prior to initiation of each experiment. During the 7-day culture period, the cells adhered and established a chondrocyte-like appearance that was maintained throughout the experimental period. Functional studies on chondrocytes were performed in high-glucose DMEM with no FBS unless indicated otherwise.
After one week of culture, 8500 cells were plated per well in Greiner 384 well white clear bottom plates in growth media. Following 24 hours of culture, the media was removed and replaced with serum free DMEM containing 20 ng/ml TNFα and 10 ng/ml human oncostatin M (inflammatory mediators). […] 20 μl of the supernatant was mixed with 20 μl of the Greiss reagent (Promega # G2930) and quantitated at 540 nm. The Greiss reagent part A (1% Sulfanilamide in 5% phosphoric acid) was mixed at a 1:1 ration with Greiss reagent part B (0.1% N-1-napthylethylenediamine dihydrochloride in water) immediately prior to added to the culture supernatant.

Structure (SMILES) | IC50 [µM]
O=C(Nc1ccc(-c2ccccc2)c(Cl)c1)C1=C(c2cccc(C(F)(F)F)n2)[C@@H]2CC[C@H]1O2 [Compound 160, (1R,4S)—N-(2-chloro-[1,1′-biphenyl]-4-yl)-3-(6-(trifluoromethyl)pyridin-2-yl)-7-oxabicyclo[2.2.1]hept-2-ene-2-carboxamide] | 5.4
COC(=O)c1cc(-c2ccccc2)ccc1NC(=O)[C@H]1[C@@H](c2nc(-c3ccc(Cl)cc3)no2)[C@@H]2CC[C@H]1O2 [Compound 9] | > 11.1
Nc1cc([C@@H]2[C@H](C(=O)Nc3ccc(Cl)c(Cl)c3)[C@H]3CC[C@@H]2O3)ccn1 (single isomer, unassigned) [Compound 115] | 26
CCOC(=O)c1ccc(NC(=O)[C@H]2[C@@H](c3nc(-c4ccc(Cl)cc4)no3)[C@@H]3CC[C@H]2O3)cc1 [Compound 17] | > 11.1
CCOC(=O)c1ccccc1NC(=O)[C@H]1[C@@H](c2nc(-c3ccc(Cl)cc3)no2)[C@@H]2CC[C@H]1O2 [Compound 2] | > 30
O=C(Nc1ccc(-c2ccccc2F)c(F)c1)[C@H]1[C@H](c2ccncc2)[C@@H]2CC[C@H]1O2 [Compound 52] | > 33
O=C(Nc1ccc(Cl)c(Cl)c1)[C@H]1[C@@H](c2ccncc2)[C@@H]2CC[C@H]1O2 [Compound 11] | > 33
O=C(Nc1ccc(-c2ccccc2Cl)c(F)c1)C1=C(c2ccnn2C2CCOCC2)[C@@H]2CCC1O2 [Compound 31] | > 33
O=C(Nc1ccc(Cl)c(Cl)c1)[C@H]1[C@H](c2ccncc2)[C@H]2CC[C@@H]1O2 (single isomer, unassigned) [Compound 103] | > 29
O=C(Nc1ccc(Cl)c(Cl)c1)[C@@H]1[C@@H](c2ccncc2)[C@@H]2CC[C@H]1O2 (single isomer, unassigned) [Compound 71] | > 29
O=C(Nc1ccc(-c2ccccc2F)c(F)c1)C1=C(c2cc(Cl)nc(Cl)c2)[C@@H]2CC[C@H]1O2 [Compound 116] | 0.12
O=C(Nc1ccc(Cl)c(Cl)c1)[C@H]1C2CC[C@H](O2)[C@H]1c1cnccn1 [Compound 140] | > 33
CCOC(=O)c1ccc(NC(=O)C2=C(c3cccc(C(F)(F)F)n3)[C@@H]3CCC2O3)cc1F [Compound 43] | > 33
O=C(Nc1ccc(-c2ccc(F)cc2F)c(F)c1)[C@H]1[C@H](c2ccncc2)[C@@H]2CC[C@H]1O2 [Compound 70] | > 33
O=C(Nc1ccc(-c2ccccc2F)c(F)c1)C1=C(c2ccnn2C2CCOCC2)C2CCC1O2 (stereo not shown) [Compound 62] | 15
Nc1cc([C@H]2[C@@H](C(=O)Nc3ccc(-c4ccccc4F)c(F)c3)[C@H]3CC[C@@H]2O3)ccn1 [Compound 64] | > 33
O=C(Nc1ccc(Cl)c(F)c1)[C@H]1[C@H](c2ccncc2)[C@@H]2CC[C@H]1O2 [Compound 33] | > 33
O=C(Nc1ccc(-c2ccccc2)c(Cl)c1)[C@H]1[C@H](c2ccncc2)[C@@H]2CC[C@H]1O2 [Compound 39] | > 33
CCOC(=O)c1ccc(NC(=O)C2=C(c3cc(C(F)(F)F)nn3C)[C@@H]3CC[C@H]2O3)cc1 [Compound 142] | > 33
N#Cc1cc([C@H]2[C@@H](C(=O)Nc3ccc(-c4ccccc4F)c(F)c3)[C@H]3CC[C@@H]2O3)ccn1 [Compound 20] | > 33
O=C(Nc1cccc(OC(F)(F)F)c1F)C1=C(c2ccncc2)[C@@H]2CCC1O2 [Compound 51] | 26
O=C(Nc1ccc(Cl)c(Cl)c1)C1=C(c2cnccn2)[C@@H]2CC[C@H]1O2 [Compound 144] | > 33
O=C(Nc1ccc(Cl)c(Cl)c1)[C@@H]1[C@@H](c2ccncc2)[C@@H]2CC[C@H]1O2 [Compound 118, (1R,2R,3S,4S)—N-(3,4-dichlorophenyl)-3-(pyridin-4-yl)-7-oxabicyclo[2.2.1]heptane-2-carboxamide] | > 33
O=C(Nc1ccc(-c2ccc(F)cc2F)c(F)c1)[C@@H]1[C@@H](c2ccncc2)[C@@H]2CC[C@H]1O2 [Compound 111] | > 33
COC(=O)c1cc(Cl)ccc1NC(=O)[C@H]1[C@H](c2ccncc2)[C@@H]2CC[C@H]1O2 [Compound 24] | > 33
